# Data published in PubChem BioAssay AID328 (DTP/NCI, 2004).
# Where “and” joins values, the source holds several entries; their conditions need not be identical. Equal values may be shown once. Inconclusive results and toxic doses are left out.
# System: BDF1 mice, P388 leukemia ip, median survival T/C
# Experiment: NCI In Vivo Anticancer Drug Screen. Data for tumor model P388 Leukemia (intraperitoneal) in B6D2F1 (BDF1) mice
# Conditions: endpoint: median survival time, higher = longer survival
# Method in brief: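 Compound-treated tumour-bearing mice were compared with vehicle-treated controls. Survival was recorded, and the value is the treated-group measurement divided by the control-group measurement (T/C).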
# [1] = dose: 12.5 mg/kg/injection, schedule: Q01DX009 (ip), vehicle: Klucel (hydroxypropylcellulose) (HPC)
# [2] = dose: 25.0 mg/kg/injection, schedule: Q01DX009 (ip), vehicle: Klucel (hydroxypropylcellulose) (HPC)
# [3] = dose: 100.0 mg/kg/injection, schedule: Q04DX002 (ip), vehicle: saline with Tween-80
# [4] = dose: 200.0 mg/kg/injection, schedule: Q04DX002 (ip), vehicle: saline with Tween-80
# [5] = dose: 400.0 mg/kg/injection, schedule: Q04DX002 (ip), vehicle: saline with Tween-80
# [6] = dose: 12.5 mg/kg/injection, schedule: Q01DX009 (ip), vehicle: saline with Tween-80
# [7] = dose: 50.0 mg/kg/injection, schedule: Q01DX009 (ip), vehicle: Klucel (hydroxypropylcellulose) (HPC)
# [8] = dose: 100.0 mg/kg/injection, schedule: Q01DX009 (ip), vehicle: Klucel (hydroxypropylcellulose) (HPC)
# [9] = dose: 100.0 mg/kg/injection, schedule: Q04DX003 (ip), vehicle: Klucel (hydroxypropylcellulose) (HPC)
# [10] = dose: 200.0 mg/kg/injection, schedule: Q01DX009 (ip), vehicle: saline with Tween-80
# [11] = dose: 200.0 mg/kg/injection, schedule: Q04DX003 (ip), vehicle: Klucel (hydroxypropylcellulose) (HPC)
# [12] = dose: 400.0 mg/kg/injection, schedule: Q04DX003 (ip), vehicle: Klucel (hydroxypropylcellulose) (HPC)
# [13] = dose: 200.0 mg/kg/injection, schedule: Q01DX009 (ip), vehicle: Klucel (hydroxypropylcellulose) (HPC)
# [14] = dose: 400.0 mg/kg/injection, schedule: Q01DX009 (ip), vehicle: Klucel (hydroxypropylcellulose) (HPC)
smiles,measurement,setting,value
CN(C)C(C#N)c1c[nH]c2ccccc12 (stereo unspecified),T/C,"dose: 6.25 mg/kg/injection, schedule: Q01DX009 (ip), vehicle: Klucel (hydroxypropylcellulose) (HPC)",105 % of control
same,T/C,"dose: 6.25 mg/kg/injection, schedule: Q04DX003 (ip), vehicle: Klucel (hydroxypropylcellulose) (HPC)",109 % of control
same,T/C,[1],100 % of control
same,T/C,"dose: 12.5 mg/kg/injection, schedule: Q04DX003 (ip), vehicle: Klucel (hydroxypropylcellulose) (HPC)",100 % of control
same,T/C,[2],94 % of control
same,T/C,"dose: 25.0 mg/kg/injection, schedule: Q04DX003 (ip), vehicle: Klucel (hydroxypropylcellulose) (HPC)",100 % of control
COc1cc(C(=O)N2CCN(c3ccccc3)CC2)c2ccccc2n1,T/C,"dose: 180.0 mg/kg/injection, schedule: Q01DX010 (ip), vehicle: carboxymethylcellulose (CMC)",114 % of control
same,T/C,"dose: 266.0 mg/kg/injection, schedule: Q01DX010 (ip), vehicle: carboxymethylcellulose (CMC)",104 % of control
same,T/C,"dose: 400.0 mg/kg/injection, schedule: Q01DX010 (ip), vehicle: carboxymethylcellulose (CMC)",104 % of control
same,T/C,"dose: 600.0 mg/kg/injection, schedule: Q01DX010 (ip), vehicle: carboxymethylcellulose (CMC)",95 % of control
CC1(C)Oc2cc3oc(C(=O)O)cc(=O)c3cc2-c2ccc(O)cc21,T/C,[3],119 % of control
same,T/C,[4],107 % of control
same,T/C,[5],108 % of control
C[C@]12CC[C@H](O)C[C@@H]1CC[C@@H]1[C@@H]2C(=O)C[C@@]2(C)[C@H]1CC[C@]2(O)C(=O)CBr,T/C,[6],114 % of control
same,T/C,[7],113 % of control
same,T/C,[8],109 % of control
same,T/C,[9],100 % of control
same,T/C,[10],118 % of control
same,T/C,[11],109 % of control
same,T/C,[12],113 % of control
CCCCOCCN1CCN(CCCN2c3ccccc3Sc3ccc(C(F)(F)F)cc32)CC1,T/C,"dose: 12.5 mg/kg/injection, schedule: Q04DX003 (ip), vehicle: saline",111 % of control
same,T/C,"dose: 25.0 mg/kg/injection, schedule: Q04DX003 (ip), vehicle: saline",112 % of control
same,T/C,"dose: 50.0 mg/kg/injection, schedule: Q04DX003 (ip), vehicle: saline",153 % of control
N#Cc1nc2nc(C(F)(F)F)[nH]c2nc1C#N,T/C,"dose: 6.25 mg/kg/injection, schedule: Q04DX003 (ip), vehicle: saline with Tween-80",100 % of control
same,T/C,[6],95 % of control
same,T/C,"dose: 12.5 mg/kg/injection, schedule: Q04DX003 (ip), vehicle: saline with Tween-80",100 % of control
same,T/C,"dose: 25.0 mg/kg/injection, schedule: Q04DX003 (ip), vehicle: saline with Tween-80",87 % of control and 90 % of control
COC(=O)[C@@]12OC[C@]34[C@H]([C@@H](O)[C@@H]1O)[C@@]1(C)CC(=O)C(O)=C(C)[C@@H]1C[C@H]3OC(=O)[C@H](OC(=O)c1ccccc1)[C@@H]24,T/C,"dose: 31.0 micrograms/kg/injection, schedule: Q01DX009 (ip), vehicle: saline + alcohol",86 % of control and 90 % of control and 100 % of control
same,T/C,"dose: 61.0 micrograms/kg/injection, schedule: Q01DX009 (ip), vehicle: saline + alcohol",100 % of control
same,T/C,"dose: 62.0 micrograms/kg/injection, schedule: Q01DX009 (ip), vehicle: saline + alcohol",113 % of control
same,T/C,"dose: 125.0 micrograms/kg/injection, schedule: Q01DX009 (ip), vehicle: saline + alcohol",95 % of control and 109 % of control
same,T/C,"dose: 250.0 micrograms/kg/injection, schedule: Q01DX009 (ip), vehicle: saline + alcohol",100 % of control and 109 % of control
same,T/C,"dose: 500.0 micrograms/kg/injection, schedule: Q01DX009 (ip), vehicle: saline + alcohol",100 % of control and 113 % of control
same,T/C,"dose: 1000.0 micrograms/kg/injection, schedule: Q01DX009 (ip), vehicle: saline + alcohol",100 % of control and 118 % of control
same,T/C,"dose: 4000.0 micrograms/kg/injection, schedule: Q01DX009 (ip), vehicle: saline + alcohol",109 % of control
Cn1ncc2c(N)ncnc21,T/C,"dose: 0.75 mg/kg/injection, schedule: Q01DX009 (ip), vehicle: Klucel (hydroxypropylcellulose) (HPC)",100 % of control
same,T/C,"dose: 1.5 mg/kg/injection, schedule: Q01DX009 (ip), vehicle: Klucel (hydroxypropylcellulose) (HPC)",100 % of control
same,T/C,"dose: 3.0 mg/kg/injection, schedule: Q01DX009 (ip), vehicle: Klucel (hydroxypropylcellulose) (HPC)",109 % of control
same,T/C,"dose: 6.0 mg/kg/injection, schedule: Q01DX009 (ip), vehicle: Klucel (hydroxypropylcellulose) (HPC)",122 % of control
CN(C)C(=O)c1cccc(N)c1,T/C,"dose: 100.0 mg/kg/injection, schedule: Q01DX009 (ip), vehicle: saline",100 % of control
same,T/C,"dose: 200.0 mg/kg/injection, schedule: Q01DX009 (ip), vehicle: saline",95 % of control
same,T/C,"dose: 400.0 mg/kg/injection, schedule: Q01DX009 (ip), vehicle: saline",100 % of control
CCCCCCCCCCCCSCCCCSCCCCCCCCCCCC,T/C,"dose: 100.0 mg/kg/injection, schedule: Q01DX001 (ip), vehicle: saline sonified",100 % of control
same,T/C,"dose: 200.0 mg/kg/injection, schedule: Q01DX001 (ip), vehicle: saline sonified",86 % of control
O=C(/C=C/c1ccc(Cl)cc1Cl)c1ccc(Cl)cc1,T/C,"dose: 100.0 mg/kg/injection, schedule: Q01DX009 (ip), vehicle: saline with Tween-80",104 % of control
same,T/C,[10],104 % of control
same,T/C,"dose: 400.0 mg/kg/injection, schedule: Q01DX009 (ip), vehicle: saline with Tween-80",100 % of control
CC(=O)n1cc(CCC(=O)O)c2ccccc21,T/C,[3],106 % of control
same,T/C,[4],101 % of control
same,T/C,[5],102 % of control
CC(C)(C)c1cc(CO)cc(C(C)(C)C)c1O,T/C,[8],107 % of control
same,T/C,[9],113 % of control
same,T/C,[13],103 % of control
same,T/C,[11],118 % of control
same,T/C,[14],111 % of control
same,T/C,[12],100 % of control
C=CCN(CC=C)c1ccccc1,T/C,[8],104 % of control
same,T/C,[9],100 % of control
same,T/C,[13],109 % of control
same,T/C,[11],100 % of control
same,T/C,[14],122 % of control
same,T/C,[12],112 % of control
O=C(CC(=O)NN=C1CCCCCC1)NN=C1CCCCCC1,T/C,"dose: 37.5 mg/kg/injection, schedule: Q01DX009 (ip), vehicle: saline with Tween-80",98 % of control
same,T/C,"dose: 75.0 mg/kg/injection, schedule: Q01DX009 (ip), vehicle: saline with Tween-80",105 % of control
same,T/C,"dose: 150.0 mg/kg/injection, schedule: Q01DX009 (ip), vehicle: saline with Tween-80",99 % of control
ClC1(Cl)OC(Cl)(Cl)C(Cl)(Cl)OC1(Cl)Cl,T/C,[7],95 % of control
same,T/C,[8],95 % of control
same,T/C,[13],109 % of control
Cc1onc(-c2c(Cl)cccc2Cl)c1C(=O)Nc1ccccc1CC1c2ccccc2CCN1C (stereo unspecified),T/C,[1],96 % of control
same,T/C,[2],99 % of control
same,T/C,[7],89 % of control and 102 % of control
